# Assay: recombinant barcode read abundance after kanamycin selection (control-corrected) (log10(CPM+1)); higher = more efficient recombination; sequences stand for … in AGTGCAGAGAAAATCGGCCAGTTTTCTCTGCCTGCAGTCCGCATGCCGT…AGATTTATGCAGCGGACTGCCTTTCTCCCAAAGTGATAAACCGGACAGTATCATGGACCGGTTTTCCCGGTAATCCGTATTTGCAAGGTTGGTTTCACT; site = the 11-nt target
# How it was run: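 Each value is log10(CPM+1). It describes recombination efficiency, taken as averaged, control-corrected counts per million of barcodes at recombinant junctions. The pooled E. coli library paired targets with IS621 bridge RNA target-binding loops, was co-electroporated with a donor plasmid, and was plated twice on chloramphenicol/ampicillin LB agar (control) and twice on chloramphenicol/ampicillin/kanamycin containing 0.1 mM IPTG.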
# 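Note: IS621 recombinase and bridge RNA in Escherichia coli cells.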
row,Sequence,recombinant barcode read abundance (log10)
1,GTGGGCCCTTGGGTTCTAACCTGTTGCTG (site ATCGGCCCTCA),0.302
2,GTGGGCCCTTGGGTTCTAACCTGTTGCTG (site GTGGGCCCTCA),2.73
3,GTGGGCTCTTGGGTTCTAACCTGTTGCCT (site CTGGGCTCTTG),0.0529
4,GTGGGCTCTTGGGTTCTAACCTGTTGCCT (site GTGGGCTCTAG),2.01
5,GTGGTAGCTTGGGTTCTAACCTGTTGCCT (site GTGGTAACTAG),0.857
6,GTGGTAGCTTGGGTTCTAACCTGTTGCCT (site GTGGTACCTAG),0.209
7,GTGGTAGCTTGGGTTCTAACCTGTTGCCT (site GTGGTAGCTAG),1.42
8,GTGGTAGCTTGGGTTCTAACCTGTTGCCT (site GTGGTATCTAG),0.0998
9,GTGGTGGCTTGGGTTCTAACCTGTTGCCT (site GTGGTGGCTAG),0.764
10,GTGGTGGCTTGGGTTCTAACCTGTTGCCT (site GTTGGGGCTAG),0.151
11,GTGTAGGCTTGGGTTCTAACCTGTTGCAG (site GTGTAGGCTCT),2.66
12,GTGTAGGCTTGGGTTCTAACCTGTTGCAG (site GTGTAGTCTCG),0.0205
13,GTGTATCCTTGGGTTCTAACCTGTTGCCA (site GTGAAGCCTTG),0.186
14,GTGTATCCTTGGGTTCTAACCTGTTGCCA (site GTGTATCCTTG),0.196
15,GTGTATTCTTGGGTTCTAACCTGTTGCCT (site ACTGTCACTCC),0.0809
16,GTGTATTCTTGGGTTCTAACCTGTTGCCT (site GTGTATTCTAG),1.44
17,GTGTCTACTTGGGTTCTAACCTGTTGCCT (site GTGTCTACTAG),0.754
18,GTGTCTACTTGGGTTCTAACCTGTTGCCT (site TTGTATACTAG),0.0293
19,GTGTCTCCTTGGGTTCTAACCTGTTGCGA (site GAGTGTCCTTC),0.00692
20,GTGTCTCCTTGGGTTCTAACCTGTTGCGA (site GTGTCTCCTTC),0.996
21,GTGTGGACTTGGGTTCTAACCTGTTGCAG (site GTGAGGACTCA),0.0484
22,GTGTGGACTTGGGTTCTAACCTGTTGCAG (site GTGTGGACTCT),2.18

row,Sequence,recombinant barcode read abundance (log10)
1,GTGTGGCCTTGGGTTCTAACCTGTTGCCA (site GTGTGGCCTTG),0.574
2,GTGTGGCCTTGGGTTCTAACCTGTTGCCA (site TCCGATACTAC),0
3,GTGTGGCCTTGGGTTCTAACCTGTTGCTT (site GAGTGCCCTAA),0.107
4,GTGTGGCCTTGGGTTCTAACCTGTTGCTT (site GTGTGGCCTAA),0.294
5,GTGTGTACTTGGGTTCTAACCTGTTGCCT (site GTGTGTACTAG),1.21
6,GTGTGTACTTGGGTTCTAACCTGTTGCCT (site GTGTGTCCTAG),0.101
7,GTGTGTACTTGGGTTCTAACCTGTTGCCT (site GTGTGTGCTAG),0.24
8,GTGTGTACTTGGGTTCTAACCTGTTGCCT (site GTGTGTTCTAG),0.0215
9,GTGTGTGCTTGGGTTCTAACCTGTTGCCT (site GTGTGTACTAG),0.821
10,GTGTGTGCTTGGGTTCTAACCTGTTGCCT (site GTGTGTCCTAG),0.0466
11,GTGTGTGCTTGGGTTCTAACCTGTTGCCT (site GTGTGTGCTAG),1.44
12,GTGTGTGCTTGGGTTCTAACCTGTTGCCT (site GTGTGTTCTAG),0.0513
13,GTGTGTTCTTGGGTTCTAACCTGTTGCCA (site GTGTGTTCTTG),0.336
14,GTGTGTTCTTGGGTTCTAACCTGTTGCCA (site TTGTGTTCTTA),0.0943
15,GTTACAACTTGGGTTCTAACCTGTTGCCT (site CTTACGACTAG),0.0197
16,GTTACAACTTGGGTTCTAACCTGTTGCCT (site GTTACAACTAG),0.263
17,GTTACGGCTTGGGTTCTAACCTGTTGCCT (site GTTACGGCTAG),0.0907
18,GTTACGGCTTGGGTTCTAACCTGTTGCCT (site GTTCCGGCTAG),0.0623
19,GTTACGGCTTGGGTTCTAACCTGTTGCCT (site GTTGCGGCTAG),0.0497
20,GTTACGGCTTGGGTTCTAACCTGTTGCCT (site GTTTCGGCTAG),0
21,GTTAGAGCTTGGGTTCTAACCTGTTGCCT (site GTTAGAGCTAG),1.32
22,GTTAGAGCTTGGGTTCTAACCTGTTGCCT (site GTTCGAGCTAG),0.235

row,Sequence,recombinant barcode read abundance (log10)
1,GTTAGAGCTTGGGTTCTAACCTGTTGCCT (site GTTGGAGCTAG),0.0737
2,GTTAGAGCTTGGGTTCTAACCTGTTGCCT (site GTTTGAGCTAG),0.225
3,GTTAGGCCTTGGGTTCTAACCTGTTGCCT (site GATAGGCCTAG),0.0232
4,GTTAGGCCTTGGGTTCTAACCTGTTGCCT (site GTTAGGCCTAG),0.292
5,GTTCAACCTTGGGTTCTAACCTGTTGCCT (site GATCAACCTAG),0.242
6,GTTCAACCTTGGGTTCTAACCTGTTGCCT (site GCTCAACCTAG),0.154
7,GTTCAACCTTGGGTTCTAACCTGTTGCCT (site GGTCAACCTAG),0.0287
8,GTTCAACCTTGGGTTCTAACCTGTTGCCT (site GTTCAACCTAG),1.48
9,GTTCCTCCTTGGGTTCTAACCTGTTGCCT (site GTTCCTCCTAG),0.823
10,GTTCCTCCTTGGGTTCTAACCTGTTGCCT (site GTTCCTGCTAG),0.0108
11,GTTGAGTCTTGGGTTCTAACCTGTTGCGT (site CTTGAGCCTAC),0.0835
12,GTTGAGTCTTGGGTTCTAACCTGTTGCGT (site GTTGAGTCTAC),1.87
13,GTTTATACTTGGGTTCTAACCTGTTGCCT (site GTATATACTAG),0.0265
14,GTTTATACTTGGGTTCTAACCTGTTGCCT (site GTCTATACTAG),0.091
15,GTTTATACTTGGGTTCTAACCTGTTGCCT (site GTGTATACTAG),0.0593
16,GTTTATACTTGGGTTCTAACCTGTTGCCT (site GTTTATACTAG),0.305
17,GTTTCGTCTTGGGTTCTAACCTGTTGCCT (site GTTTCGACTAG),0.0118
18,GTTTCGTCTTGGGTTCTAACCTGTTGCCT (site GTTTCGTCTAG),0.0924
19,GTTTGACCTTGGGTTCTAACCTGTTGCGG (site GTTTGACCTCC),1.47
20,GTTTGACCTTGGGTTCTAACCTGTTGCGG (site TAGCTGACTGG),0.0274
21,GTTTGAGCTTGGGTTCTAACCTGTTGCCT (site GTTAGAGCTAG),0.231
22,GTTTGAGCTTGGGTTCTAACCTGTTGCCT (site GTTCGAGCTAG),0.261

row,Sequence,recombinant barcode read abundance (log10)
1,GTTTGAGCTTGGGTTCTAACCTGTTGCCT (site GTTGGAGCTAG),0.05
2,GTTTGAGCTTGGGTTCTAACCTGTTGCCT (site GTTTGAGCTAG),0.625
3,TAAAAGCCTTGGGTTCTAACCTGTTGCCT (site TAAAAGACTAG),0.0773
4,TAAAAGCCTTGGGTTCTAACCTGTTGCCT (site TAAAAGCCTAG),0.42
5,TAAAAGCCTTGGGTTCTAACCTGTTGCCT (site TAAAAGGCTAG),0.0822
6,TAAAAGCCTTGGGTTCTAACCTGTTGCCT (site TAAAAGTCTAG),0.224
7,TAAATCACTTGGGTTCTAACCTGTTGCCG (site ACGTATGCTAT),0.0241
8,TAAATCACTTGGGTTCTAACCTGTTGCCG (site TAAATCACTCG),0.281
9,TAACGCTCTTGGGTTCTAACCTGTTGCCT (site AAACGCTCTAG),0.0696
10,TAACGCTCTTGGGTTCTAACCTGTTGCCT (site TAACGCTCTAG),1.2
11,TAACGGGCTTGGGTTCTAACCTGTTGCCG (site TAAAGGGCTAG),0.0666
12,TAACGGGCTTGGGTTCTAACCTGTTGCCG (site TAACGGGCTCG),0.529
13,TAACGTACTTGGGTTCTAACCTGTTGCTT (site TAAAGTACTAA),0.137
14,TAACGTACTTGGGTTCTAACCTGTTGCTT (site TAACGTACTAA),0.641
15,TAACGTACTTGGGTTCTAACCTGTTGCTT (site TAAGGTACTAA),0.109
16,TAACGTACTTGGGTTCTAACCTGTTGCTT (site TAATGTACTAA),0.0185
17,TAACTTACTTGGGTTCTAACCTGTTGCAT (site TAACATACTAT),0.179
18,TAACTTACTTGGGTTCTAACCTGTTGCAT (site TAACCTACTAT),0.0991
19,TAACTTACTTGGGTTCTAACCTGTTGCAT (site TAACGTACTAT),0.0567
20,TAACTTACTTGGGTTCTAACCTGTTGCAT (site TAACTTACTAT),0.341
